Results: ChEMBL document CHEMBL1144309, “Specific recognition of napthyridine-based ligands toward guanine-containing bulges in RNA duplexes and RNA-DNA heteroduplexes” (Bioorg Med Chem Lett, 2005)

How the values were obtained:
[1] = tested on: Human immunodeficiency virus 1; test: Dissociation constant was measured against HIV-1 RNA construct K (present in HIV-1 RRE IIB RNA region); assay type: functional
[2] = tested on: Human immunodeficiency virus 1; test: Dissociation constant was measured against HIV-1 RNA construct I (present in HIV-1 RRE IIB RNA region); assay type: functional
[3] = tested on: Human immunodeficiency virus 1; test: Dissociation constant was measured against HIV-1 RNA construct J (present in HIV-1 RRE IIB RNA region); assay type: functional
[4] = tested on: Human immunodeficiency virus 1; test: Dissociation constant was measured against HIV-1 RNA construct B (present in HIV-1 RRE IIB RNA region); assay type: functional
[5] = tested on: Human immunodeficiency virus 1; test: Dissociation constant was measured against HIV-1 RNA construct F (present in HIV-1 RRE IIB RNA region); N.B. = no measurable binding; assay type: functional, organism-based
[6] = tested on: Human immunodeficiency virus 1; test: Dissociation constant was measured against HIV-1 RNA construct A (present in HIV-1 RRE IIB RNA region); assay type: functional
[7] = tested on: Human immunodeficiency virus 1; test: Dissociation constant was measured against HIV-1 RNA construct G (present in HIV-1 RRE IIB RNA region); N.B. = no measurable binding; assay type: functional, organism-based
[8] = tested on: Human immunodeficiency virus 1; test: Dissociation constant was measured against HIV-1 RNA construct C (present in HIV-1 RRE IIB RNA region); assay type: functional
[9] = tested on: Human immunodeficiency virus 1; test: Dissociation constant was measured against HIV-1 RNA construct D (present in HIV-1 RRE IIB RNA region); assay type: functional
[10] = tested on: Human immunodeficiency virus 1; test: Dissociation constant was measured against HIV-1 RNA construct H (present in HIV-1 RRE IIB RNA region); N.B. = no measurable binding; assay type: functional, organism-based
[11] = tested on: Human immunodeficiency virus 1; test: Dissociation constant was measured against HIV-1 RNA construct E (present in HIV-1 RRE IIB RNA region); N.B. = no measurable binding; assay type: functional

| SMILES | Kd [1] [µM] | Kd [2] [µM] | Kd [3] [µM] | Kd [4] [µM] | Kd [5] | Kd [6] [µM] | Kd [7] | Kd [8] [µM] | Kd [9] [µM] | Kd [10] | Kd [11] |
| --- | --- | --- | --- | --- | --- | --- | --- | --- | --- | --- | --- |
| Cc1ccc2ccc(NC(=O)CCNCCNCCC(=O)Nc3ccc4ccc(C)nc4n3)nc2n1 | 34.9 | 35.1 | 32.3 |  |  |  |  |  |  |  |  |
| Cc1ccc2ccc(NC(=O)CCN)nc2n1 |  |  |  | 2.4 | No binding | 1.4 | No binding | 2.9 | 3.2 | No binding | No binding |
